Measurements: PMC7215599, “Synthesis, Antitumor Evaluation, Molecular Modeling and Quantitative Structure–Activity Relationship (QSAR) of Novel 2-[(4-Amino-6-N-substituted-1,3,5-triazin-2-yl)methylthio]-4-chloro-5-methyl-N-(1H-benzo[d]imidazol-2(3H)-ylidene)Benzenesulfonamides” (International Journal of Molecular Sciences, 2020)

Tests used:
[1] = tested on: MCF-7 (breast cancer) cell line; test: MTT cell viability assay, MCF-7; format: cell-based, human; settings: MTT, 72 h, 1-100 µM, mean ± SD
Description: (§1) Compounds 6–49 were evaluated in vitro for their effects on the viability of the three human cancer cell lines: HCT-116 (colon cancer), MCF-7 (breast cancer) and HeLa (cervical cancer) as well as the non-cancerous keratinocyte cell line (HaCaT). The concentration required for 50% inhibition of cell viability IC50 was calculated and compared with the reference drug cisplatin, the results are shown in Table 1.
(§2) Cell lines: colon cancer (HCT-116), breast cancer (MCF-7), cervical cancer (HeLa), the human keratinocyte cell line (HaCaT); NT—not tested; IC50 was measured at concentrations 1, 10, 25, 50, and 100 µM. IC50 values are expressed as the mean ± SD of at last three independent experiments.
(§3) All chemicals, if not stated otherwise, were obtained from Sigma–Aldrich (St. Louis, MO, USA). The HCT-116 cell lines was purchased from ATCC (ATCC-No: CCL-247), while the MCF-7, HeLa and HaCaT cell lines were purchased from Cell Lines Services (Eppelheim, Germany). Cells were cultured in Dulbecco’s modified Eagle’s medium (DMEM) supplemented with 10% fetal bovine serum, 2 mM glutamine, 100 units/mL penicillin, and 100 µg/mL streptomycin. Cultures were maintained in a humidified atmosphere with 5% carbon dioxide at 37 °C in an incubator (Heraceus, HeraCell).
(§4) Cell viability was examined using the MTT (3-(4,5-dimethylthiazol-2-yl)-2,5-diphenyltetrazolium bromide) assay. Cells were seeded in 96-well plates at a density of 5 × 10^3 cells/well and treated for 72 h with the tested compounds in the concentration range of 1–100 µM (1, 10, 25, 50 and 100 µM). Then, MTT (0.5 mg/mL) was added to the medium and cells were further incubated for 2 h at 37 °C. In the next stage, cells were lysed with DMSO and the absorbance of the formazan solution was measured at 550 nm with a plate reader (1420 multilabel counter, Victor, Jügesheim, Germany). The experiment was performed in triplicate. Values are expressed as the mean ± SD of at least three independent experiments. Cisplatin was used as a positive control.

[2] = tested on: HCT-116 (colon cancer) cell line; test: MTT cell viability assay, HCT-116; format: cell-based, human; settings: for IC50: MTT, 72 h, 1-100 µM, mean ± SD
Description: as §1, §2, §3, §4

[3] = tested on: HeLa (cervical cancer) cell line; test: MTT cell viability assay, HeLa; format: cell-based, human; settings: for IC50: 72 h, MTT, 1-100 µM, mean ± SD
Description: as §1, §2, §3, §4

[4] = tested on: HaCaT (non-cancerous keratinocyte cell line); test: MTT cell viability assay, HaCaT; format: cell-based; settings: Homo sapiens, 72 h, 1-100 µM, mean ± SD, non-cancerous cells
Description: as §1, §2, §3, §4

SMILES	IC50 ([1]; Homo sapiens, MCF7, 72 h) [µM]	IC50 ([2]; Homo sapiens, HCT-116, 72 h) [µM]	IC50 ([3]; Homo sapiens, HeLa) [µM]	IC50 [1] [µM]	IC50 [2] [µM]	IC50 [3] [µM]	IC50 [4] [µM]	selectivity ratio HaCaT/HCT-116 ([2]; ratio of IC50 values)	selectivity ratio HaCaT/HeLa ([3]; ratio of IC50 values)
CC1=NN(c2nc(N)nc(CSc3cc(Cl)c(C)cc3S(=O)(=O)N=c3[nH]c4ccc(F)cc4[nH]3)n2)C(C)(C)C1 [Compound 33, 2-{[4-Amino-6-(3,5,5-trimethyl-4,5-dihydro-1H-pyrazol-1-yl)-1,3,5-triazin-2-yl]metylthio}-4-chloro-N-(5-fluoro-1H-benzo[d]imidazol-2(3H)-ylidene)-5-methylbenzenesulfonamide]	35 ± 2	19 ± 1	30 ± 2	–	–	–	48 ± 2	–	–
Cc1cc(S(=O)(=O)N=c2[nH]c3ccccc3[nH]2)c(SCc2nc(N)nc(N3CCN(c4ccc(Cl)c(Cl)c4)CC3)n2)cc1Cl [Compound 25, 2-[{4-Amino-6-[4-(3,4-dichlorophenyl)piperazin-1-yl]-1,3,5-triazin-2-yl}metylthio]-N-(1H-benzo[d]imidazol-2(3H)-ylidene)-4-chloro-5-methylbenzenesulfonamide]	46 ± 2	16 ± 1	28 ± 1	–	–	–	52 ± 2	–	–
CC1=NN(c2nc(N)nc(CSc3cc(Cl)c(C)cc3S(=O)(=O)N=c3[nH]c4ccccc4[nH]3)n2)C(C)(C)C1 [Compound 8, 2-{[4-Amino-6-(3,5,5-trimethyl-4,5-dihydro-1H-pyrazol-1-yl)-1,3,5-triazin-2-yl]metylthio}-N-(1H-benzo[d]imidazol-2(3H)-ylidene)-4-chloro-5-methylbenzenesulfonamide]	34 ± 2	23 ± 1	31 ± 2	–	–	–	43 ± 2	–	–
N.N.[Cl][Pt][Cl] [cisplatin, reference compound]	–	–	–	3 ± 0.1	2.2 ± 0.1	3.8 ± 0.2	–	–	–
Cc1cc(S(=O)(=O)N=c2[nH]c3ccc(F)cc3[nH]2)c(SCc2nc(N)nc(N3CCN(c4ccc(F)cc4)CC3)n2)cc1Cl [Compound 38, 2-[{4-Amino-6-[4-(4-fluorophenyl)piperazin-1-yl]-1,3,5-triazin-2-yl}metylthio]-4-chloro-N-(5-fluoro-1H-benzo[d]imidazol-2(3H)-ylidene)-5-methylbenzenesulfonamide]	24 ± 1	14 ± 1	18 ± 1	–	–	–	38 ± 2	–	–
Cc1cc(S(=O)(=O)N=c2[nH]c3ccccc3[nH]2)c(SCc2nc(N)nc(N3CCOCC3)n2)cc1Cl [Compound 7, 2-[(4-Amino-6-morpholino-1,3,5-triazin-2-yl)methylthio]-N-(1H-benzo[d]imidazol-2(3H)-ylidene)-4-chloro-5-methylbenzenesulfonamide]	> 100	75 ± 3	> 100	99 ± 3	–	86 ± 3	102 ± 4	–	–
Cc1cc(S(=O)(=O)N=c2[nH]c3ccc(Cl)cc3[nH]2)c(SCc2nc(N)nc(Nc3ccc(F)cc3)n2)cc1Cl [Compound 43, 2-[{4-Amino-6-[(4-fluorophenyl)amino]-1,3,5-triazin-2-yl}methylthio]-4-chloro-N-(5-chloro-1H-benzo[d]imidazol-2(3H)-ylidene)-5-methylbenzenesulfonamide]	44 ± 2	43 ± 1	45 ± 2	–	–	–	55 ± 2	–	–
COc1ccc(Nc2nc(N)nc(CSc3cc(Cl)c(C)cc3S(=O)(=O)N=c3[nH]c4ccc(Cl)cc4[nH]3)n2)cc1 [Compound 44, 2-[{4-Amino-6-[(4-methoxyphenyl)amino]-1,3,5-triazin-2-yl}methylthio]-4-chloro-N-(5-chloro-1H-benzo[d]imidazol-2(3H)-ylidene)-5-methylbenzenesulfonamide]	47 ± 2	48 ± 1	50 ± 2	–	–	–	61 ± 2	–	–
Cc1cc(S(=O)(=O)N=c2[nH]c3ccccc3[nH]2)c(SCc2nc(N)nc(N(C)C)n2)cc1Cl [Compound 6, 2-{[4-Amino-6-(dimethylamino)-1,3,5-triazin-2-yl]methylthio}-N-(1H-benzo[d]imidazol-2(3H)-ylidene)-4-chloro-5-methylbenzenesulfonamide]	52 ± 1	49 ± 1	50 ± 2	–	–	–	57 ± 3	–	–
Cc1cc(S(=O)(=O)N=c2[nH]c3ccccc3[nH]2)c(SCc2nc(N)nc(N3CCCc4ccccc43)n2)cc1Cl [Compound 10, 2-{[4-Amino-6-(3,4-dihydroquinolin-1(2H)-yl)-1,3,5-triazin-2-yl]methylthio}-N-(1H-benzo[d]imidazol-2(3H)-ylidene)-4-chloro-5-methylbenzenesulfonamide]	25 ± 1	32 ± 3	30 ± 1	–	–	–	45 ± 2	–	–
Cc1cc(S(=O)(=O)N=c2[nH]c3ccccc3[nH]2)c(SCc2nc(N)nc(NCc3ccccc3)n2)cc1Cl [Compound 15, 2-{[4-Amino-6-(benzylamino)-1,3,5-triazin-2-yl]metylthio}-N-(1H-benzo[d]imidazol-2(3H)-ylidene)-4-chloro-5-methylbenzenesulfonamide]	27 ± 1	22 ± 1	> 100	–	–	92 ± 2	–	–	–

Continued, in another order:

IC50 ([1]; Homo sapiens, MCF7, 72 h) [µM]	IC50 ([2]; Homo sapiens, HCT-116, 72 h) [µM]	IC50 ([3]; Homo sapiens, HeLa) [µM]	IC50 [1] [µM]	IC50 [2] [µM]	IC50 [3] [µM]	SMILES	IC50 [4] [µM]	selectivity ratio HaCaT/HCT-116 ([2]; ratio of IC50 values)	selectivity ratio HaCaT/HeLa ([3]; ratio of IC50 values)
27 ± 2	17 ± 1	20 ± 1	–	–	–	Cc1cc(S(=O)(=O)N=c2[nH]c3ccc(F)cc3[nH]2)c(SCc2nc(N)nc(N3CCN(c4ccccc4)CC3)n2)cc1Cl [Compound 37, 2-[{[4-Amino-6-(4-phenylpiperazin-1-yl)-1,3,5-triazin-2-yl]methyl}thio]-4-chloro-N-(5-fluoro-1H-benzo[d]imidazol-2(3H)-ylidene)-5-methylbenzenesulfonamide]	39 ± 1	–	–
46 ± 2	18 ± 1	39 ± 1	–	–	–	Cc1cc(S(=O)(=O)N=c2[nH]c3ccccc3[nH]2)c(SCc2nc(N)nc(N3CCN(C(c4ccccc4)c4ccccc4)CC3)n2)cc1Cl [Compound 31]	54 ± 2	–	–
26 ± 1	15 ± 1	28 ± 1	–	–	–	Cc1cc(S(=O)(=O)N=c2[nH]c3ccc(Cl)cc3[nH]2)c(SCc2nc(N)nc(N3CCN(c4ccccc4)CC3)n2)cc1Cl [Compound 45, 2-[{4-Amino-6-[4-(4-phenyl)piperazin-1-yl]-1,3,5-triazin-2-yl}metylthio]-4-chloro-N-(5-chloro-1H-benzo[d]imidazol-2(3H)-ylidene)-5-methylbenzenesulfonamide]	39 ± 1	–	–
15 to 24	7 to 11	11 to 18	24 ± 1	11 ± 0.5	11 ± 0.5	Cc1cc(S(=O)(=O)N=c2[nH]c3ccccc3[nH]2)c(SCc2nc(N)nc(N3CCN(c4ccc(C(F)(F)F)cc4)CC3)n2)cc1Cl [Compound 22, 2-{[4-Amino-6-{4-[4-(trifluoromethyl)phenyl]piperazin-1-yl}-1,3,5-triazin-2-yl]methylthio}-N-(1H-benzo[d]imidazol-2(3H)-ylidene)-4-chloro-5-methylbenzenesulfonamide]	34 ± 1	3.1	3.1
> 100	> 100	> 100	134 ± 9	195 ± 4	56 ± 2	Cc1cc(S(=O)(=O)N=c2[nH]c3ccccc3[nH]2)c(SCc2nc(N)nc(N3CCN(c4ccc([N+](=O)[O-])cc4)CC3)n2)cc1Cl [Compound 29, 2-[{4-Amino-6-[4-(4-nitrophenyl)piperazin-1-yl]-1,3,5-triazin-2-yl}metylthio]-N-(1H-benzo[d]imidazol-2(3H)-ylidene)-4-chloro-5-methylbenzenesulfonamide]	–	–	–
